One may read the IC50 as the midpoint of a concentration-inhibition curve.

We go through 43 compounds from PubChem BioAssay AID1238 (The Scripps Research Institute Molecular Screening Center, 2008).

The source made the active and inactive calls. How the calls were made is not given here. Some results are limits rather than exact numbers.

This assay concerns beta-lactamase reporter cell line, FRET read-out, counterscreen. Description: nonspecific beta-lactamase reporter inhibition – cell-based, FRET readout, counter-screen for GALR2 antagonist project, dose response (AID 1238).
Consider `O=[N+]([O-])c1cc(-c2ncccn2)c([N+](=O)[O-])s1`, for which the IC50 was 9.61 µM. With `CC1CCC/C=C/C2CC(O)CC2C(O)/C=C/C(=O)O1` (stereo not drawn), the IC50 is > 42 µM (inactive). The value for `CCn1c2ccc(C)cc2c2nc3cc(C(=O)O)ccc3nc21` was > 42 µM (inactive); that for `COc1cc(/C=C/[N+](=O)[O-])ccc1O` was 11.1 µM (inactive); that for `Cc1nnc(SCC(=O)Nc2cccc(S(=O)(=O)N(C)c3ccccc3)c2)s1` was > 42 µM (inactive).

For `Cc1ccc(S(=O)(=O)CC2CSc3nc4ccccc4n32)cc1` (stereo not drawn), the IC50 was > 42 µM (inactive). As for `CC(=O)SC(C[N+](=O)[O-])c1cn(C(C)=O)c2ccccc12` (stereo not drawn), the IC50 is 17.1 µM (inactive).

In the case of `Cc1cc(C(=O)CSc2nc3ccccc3[nH]2)c(C)n1CC1CCCO1` (stereo not drawn), the IC50 is > 42 µM (inactive). The value for `CCCOc1ncnc2c1[nH]c1ccccc12` was > 42 µM (inactive); that for `c1ccc2c(c1)OCC(CNc1ncnc3sccc13)O2` (stereo not drawn) was > 42 µM (inactive); that for `c1cnc2c(c1)ccc1cccnc12` was > 42 µM (inactive).

Take `CCOC(=O)c1ccc(N2C(=O)CC(N3CCC(O)(c4ccc(Br)cc4)CC3)C2=O)cc1` (stereo not drawn): the IC50 is > 42 µM (inactive). The value for `COC(=O)c1ccc(COC(=O)c2[nH]c(C)c(C(C)=O)c2C)o1` was > 42 µM (inactive); that for `Cc1cc(C)c(S(=O)(=O)NCc2ccncc2)c(C)c1` was > 42 µM (inactive); that for `CCOC(=O)COc1ccc(S(=O)(=O)NCc2ccncc2)cc1` was > 42 µM (inactive). On to `CCOC(=O)c1cc([N+](=O)[O-])c([N+](=O)[O-])cc1NC(C)=O`, for which the IC50 is 7.53 µM.

With `O=C(Nc1ccc2nc(-c3cccnc3)[nH]c2c1)C12CC3CC(CC(C3)C1)C2`, the IC50 was > 42 µM (inactive). The same measure for `CC(=O)c1c(C)[nH]c(C(=O)OCCCCN2C(=O)c3ccccc3C2=O)c1C`: > 42 µM (inactive); for `CN(C)c1ccc(NC2=C(Cl)C(=O)c3ccccc3C2=O)cc1`: > 14 µM (inactive). The same measure for `CCOc1ccc(S(=O)(=O)NCc2ccncc2)cc1`: > 42 µM (inactive); for `Cc1cccc(C(=O)Nc2ccc(C(=O)/C=C/c3cccnc3)cc2)c1`: 17.9 µM (inactive). As to `c1ccc2c(c1)[nH]c1c(NCC3CCCO3)ncnc12` (stereo not drawn), the IC50 is > 42 µM (inactive).

`Cc1nc2ccc(NC(=O)c3cc(S(=O)(=O)N(C)c4ccccc4)ccc3Cl)cc2s1`: the IC50 was > 42 µM (inactive). The value for `O=C(/C=C/Sc1ncn[nH]1)c1ccc(Cl)cc1` was 17 µM (inactive). `Cc1ccc2[nH]c3c(N4CCc5ccccc5C4)ncnc3c2c1`: the IC50 was > 42 µM (inactive). The value for `O=C(Cn1ncc(Cl)c(Cl)c1=O)N1CCN(S(=O)(=O)c2ccc3ccccc3c2)CC1` was > 14 µM (inactive); that for `CNc1nc2cc([N+](=O)[O-])c([N+](=O)[O-])cc2nc1NC` was > 42 µM (inactive).

As to `COc1ccc(CCNc2c(C)c(C)nc3ncnn23)cc1`, the IC50 is > 42 µM (inactive).

Regarding `CCc1ccccc1NC(=O)CN(C)C(=O)Cn1ncc(Cl)c(Cl)c1=O`, the IC50 was 17.1 µM (inactive). The value for `CC(=O)c1c(C)[nH]c(C(=O)OCC(=O)Nc2ccc(Cl)cc2[N+](=O)[O-])c1C` was > 42 µM (inactive); that for `O=C(Cc1cccs1)Nc1cccc(-c2nc3cc4ccccc4cc3[nH]2)c1` was > 42 µM (inactive). Consider `Cc1cc(Nc2cccc(Cl)c2)nc(NCc2ccccc2)n1`, for which the IC50 is > 14 µM (inactive).

As for `N#C/C(=C\c1cccs1)c1nc2ccccc2[nH]1`, the IC50 was > 42 µM (inactive). `CC(=O)Nc1ccccc1OCC(=O)c1cc(C)n(Cc2cccs2)c1C`: the IC50 was > 42 µM (inactive).

For `Cc1ccc(S(=O)(=O)NCc2ccncc2)cc1`, the IC50 is > 42 µM (inactive). The value for `O=C(/C=C/c1ccc(Cl)cc1)NC(=S)Nc1ccc(NC(=O)c2ccco2)cc1` was > 14 µM (inactive); that for `Cc1sc2ncnc(NCCc3ccc(S(N)(=O)=O)cc3)c2c1C` was > 42 µM (inactive). Regarding `CCOC(=O)N1CCN(c2ncnc3c2[nH]c2ccc(F)cc23)CC1`, the IC50 was > 42 µM (inactive).

For `Cn1nc(C(C)(C)C)cc1C(=O)NCc1ccc(N2CCCC2=O)cc1`, the IC50 was > 42 µM (inactive). With `O=S(=O)(NCc1ccncc1)c1ccc(Br)s1`, the IC50 was > 42 µM (inactive). The value for `C1=C(CCNc2ncnc3c2[nH]c2ccccc23)CCCC1` was > 42 µM (inactive); that for `CN(C(=S)NC1CCCCC1)C1(c2ccccc2Cl)CCCCC1=O` (stereo not drawn) was > 42 µM (inactive). In the case of `CCCCOc1ncnc2c1[nH]c1ccc(F)cc12`, the IC50 is > 42 µM (inactive).
